Experimental findings from ChEMBL document CHEMBL1201862, “PubChem BioAssay data set” (2004) are described below.

Some test systems named below: 786-0; ACHN; HCT-116; HT-29; Hs-578T; IGROV-1; KM12; MDA-N; Malme-3M; NCI-H226; NCI-H23; OVCAR-4; OVCAR-5; RPMI-8226; RXF 393; SF-295; SK-MEL-2; SW-620; UACC-257.
Assay in all cases: NCI tumour cell line growth inhibition, 48 h

Each structure is given as a SMILES string.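 Cells were grown in 96-well plates and exposed to each compound for 48 hours at five concentrations; endpoints were interpolated linearly between bracketing concentrations, or set to the highest concentration if not reached. Here, GI50 denotes the concentration required for 50% inhibition of growth.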 Activity calls are given as the source filed them. No stated cut-off is given here; in the data, active = GI50 up to about 1.1 µM and inactive = higher. Some results are limits rather than exact numbers.

With `COc1ccc(/C=C2\N=C(N3CCCCC3)NC2=O)cc1`, the GI50 with 786-0, with ACHN, in the test with HCT-116, in the test on HT-29, with Hs-578T and in the test on IGROV-1 was > 100 µM (inactive) in each case. For the same compound, the GI50 was 52.1 µM (inactive) in the test with KM12; 59 µM (inactive) with MDA-N; > 100 µM (inactive) in the test on Malme-3M; > 100 µM (inactive) with NCI-H226; > 100 µM (inactive) with NCI-H23; > 100 µM (inactive) in the test with OVCAR-4. Further, the GI50 in the test with OVCAR-5 is > 100 µM (inactive); with RPMI-8226 it was > 100 µM (inactive); with RXF 393 it was 64 µM (inactive); in the test with SF-295 it was > 100 µM (inactive); with SK-MEL-2, > 100 µM (inactive); in the test with SW-620 it was 96.8 µM (inactive). The GI50 in the test with UACC-257 was > 100 µM (inactive).

On to `Cc1ccc(O)c(C2=NNC(c3cccc(Cl)c3)C2)c1` (configuration not stated), for which the GI50 with 786-0 was 72.8 µM (inactive); in the test on ACHN, 30.1 µM (inactive); in the test with HCT-116, 34 µM (inactive); in the test on HT-29, 54.8 µM (inactive); with Hs-578T it was 30.5 µM (inactive); with IGROV-1, 5.69 µM (inactive). For the same compound, the GI50 is 20.6 µM (inactive) in the test on KM12; 28.3 µM (inactive) with MDA-N; 37.8 µM (inactive) in the test on Malme-3M; 57.1 µM (inactive) with NCI-H226; 50.1 µM (inactive) in the test with NCI-H23; 24.4 µM (inactive) in the test with OVCAR-4. Moreover, the GI50 in the test with OVCAR-5 is > 100 µM (inactive); in the test on RPMI-8226 it was 25.1 µM (inactive); with RXF 393, 19.4 µM (inactive); in the test on SF-295, 66.4 µM (inactive); in the test on SK-MEL-2, 30 µM (inactive); with SW-620 it was 48 µM (inactive). The GI50 in the test on UACC-257 is 35 µM (inactive).

Regarding `COC(=O)C1(Cc2ccccc2)Cc2ccc3c(c2C1=O)CCC3` (configuration not stated), the GI50 in the test on 786-0 is 33.7 µM (inactive); in the test on ACHN it was 51.4 µM (inactive); in the test on HCT-116, 30.5 µM (inactive); in the test on HT-29 it was 29 µM (inactive); in the test on Hs-578T it was 3.95 µM (inactive); with IGROV-1, > 72.9 µM (inactive). Moreover, the GI50 with KM12 was 31.8 µM (inactive); with MDA-N it was 26.2 µM (inactive); in the test with Malme-3M, 14.2 µM (inactive); in the test with NCI-H226, > 55.6 µM (inactive); in the test with NCI-H23, 32.2 µM (inactive); with OVCAR-4, > 29.9 µM (inactive). Moreover, the GI50 is > 63 µM (inactive) with OVCAR-5; 25.4 µM (inactive) in the test on RPMI-8226; 20.4 µM (inactive) in the test with RXF 393; > 46.2 µM (inactive) in the test with SF-295; 18.1 µM (inactive) in the test on SK-MEL-2; > 60.4 µM (inactive) in the test on SW-620. The GI50 in the test with UACC-257 was 35.2 µM (inactive).

For the compound `O=C(Cc1ccccc1)NCCc1ccc(O)c(O)c1`, the GI50 in the test on 786-0 was 93.3 µM (inactive); in the test on ACHN, 64.4 µM (inactive); in the test with HCT-116, > 100 µM (inactive); with HT-29 it was > 100 µM (inactive); with Hs-578T it was > 100 µM (inactive); in the test with IGROV-1, 77.1 µM (inactive). Besides, the GI50 was > 100 µM (inactive) in the test on KM12; 17.4 µM (inactive) with MDA-N; > 100 µM (inactive) in the test on Malme-3M; > 100 µM (inactive) in the test with NCI-H226; 52.6 µM (inactive) with NCI-H23; 13 µM (inactive) with OVCAR-4. Moreover, the GI50 in the test with OVCAR-5 was > 100 µM (inactive); with RPMI-8226, 15.6 µM (inactive); with RXF 393, > 100 µM (inactive); in the test with SF-295, > 100 µM (inactive); with SK-MEL-2 it was 24.8 µM (inactive); in the test with SW-620, > 100 µM (inactive). In addition, in the test on UACC-257, the GI50 was > 100 µM (inactive).

Consider `C[C@]12CC[C@H]3[C@@H](CCC4=C[C@@H](OC5OCC(OC6OC(CO)C(O)C(O)C6O)C(O)C5O)CC[C@@]43C=O)[C@@]1(O)CCC2C1=CC(=O)OC1` (some centres not stated), for which the GI50 with 786-0 is 0.365 µM (active); in the test with ACHN, 0.137 µM (active); in the test on HCT-116, 0.322 µM (active); in the test with HT-29, 0.832 µM (active); with Hs-578T it was 0.522 µM (active); in the test on IGROV-1 it was 0.351 µM (active). Also, the GI50 with KM12 was 2.71 µM (inactive); in the test with MDA-N, 1.01 µM (active); with Malme-3M, 0.59 µM (active); in the test on NCI-H226, 2.15 µM (inactive); in the test on NCI-H23, 0.195 µM (active); with OVCAR-4, 0.237 µM (active). Moreover, the GI50 in the test on OVCAR-5 was 1.86 µM (inactive); in the test on RPMI-8226, 0.628 µM (active); in the test on RXF 393 it was 0.23 µM (active); in the test on SF-295, 0.638 µM (active); with SK-MEL-2, 1.62 µM (inactive); with SW-620 it was 0.746 µM (active). For the same compound, the GI50 with UACC-257 was 1.42 µM (inactive).

As to `CCOC(CNCCC(=O)OC)OCC`, the GI50 with 786-0, in the test with ACHN, in the test with HCT-116, in the test on HT-29, in the test on Hs-578T and in the test with IGROV-1 was > 10 µM (inactive) each time. For the same compound, the GI50 in the test on KM12, in the test on MDA-N, with Malme-3M, in the test with NCI-H226, in the test with NCI-H23 and in the test with OVCAR-4 was > 10 µM (inactive) in each case. Moreover, the GI50 in the test on RPMI-8226, with RXF 393, in the test with SF-295, in the test with SK-MEL-2, in the test with SW-620 and in the test on UACC-257 was > 10 µM (inactive) in each case.

Regarding `COc1ccc(NC2=CC(=O)C(=O)c3ccccc32)nn1`, the GI50 with 786-0 was 1.86 µM (inactive); in the test on ACHN, 1.66 µM (inactive); in the test on HT-29, 1.64 µM (inactive); in the test with Hs-578T, 1.99 µM (inactive); with IGROV-1, 1.69 µM (inactive); in the test on KM12 it was 0.361 µM (active). The GI50 in the test with MDA-N is 0.262 µM (active); in the test with Malme-3M, 0.661 µM (active); in the test on NCI-H226, 2.31 µM (inactive); with NCI-H23 it was 1.91 µM (inactive); in the test on OVCAR-4, 1.41 µM (inactive); with OVCAR-5, 1.92 µM (inactive). Further, the GI50 is 1.51 µM (inactive) with RPMI-8226; 1.36 µM (inactive) with RXF 393; 0.822 µM (active) in the test with SF-295; 1.95 µM (inactive) with SK-MEL-2; 1.29 µM (inactive) in the test on SW-620; 1.72 µM (inactive) in the test with UACC-257.

Regarding `CCCCCCNC(=S)N/N=C(\C)c1ccccn1`, the GI50 was < 0.0268 µM (active) in the test on 786-0; < 0.0113 µM (active) with ACHN; < 0.01 µM (active) in the test on HCT-116; 20.7 µM (inactive) with Hs-578T; < 0.01 µM (active) in the test on IGROV-1; 0.394 µM (active) in the test on KM12. Also, the GI50 in the test on MDA-N was 0.904 µM (active); in the test on Malme-3M, 2.65 µM (inactive); with NCI-H226, 0.138 µM (active); in the test on NCI-H23, < 0.0311 µM (active); in the test on OVCAR-4 it was 11.4 µM (inactive); in the test with OVCAR-5 it was 0.728 µM (active). Besides, the GI50 was < 0.01 µM (active) with RPMI-8226; 0.0189 µM (active) in the test on RXF 393; 0.407 µM (active) with SF-295; 3.09 µM (inactive) in the test on SK-MEL-2; < 0.0322 µM (active) in the test on SW-620; 0.01 µM (active) in the test on UACC-257.

In the case of `CC[C@H](C)[C@@H]([C@@H](CC(=O)N1CCC[C@H]1[C@H](OC)[C@@H](C)C(=O)NCCc1ccccc1)OC)N(C)C(=O)C(NC(=O)[C@H](C(C)C)N(C)C)C(C)C` (some centres not stated), the GI50 with 786-0 was 0.00021 µM (active); in the test with ACHN it was 0.000757 µM (active); in the test with HCT-116, 0.000255 µM (active); in the test on HT-29, 8.89e-05 µM (active); with Hs-578T, 0.000446 µM (active); in the test with IGROV-1, 0.000363 µM (active). Further, the GI50 in the test on KM12 is 8.57e-05 µM (active); in the test with MDA-N it was 3.46e-05 µM (active); in the test on Malme-3M, 0.001 µM (active); in the test on NCI-H226 it was 0.00064 µM (active); with NCI-H23, 0.000314 µM (active); in the test on OVCAR-4, 0.00094 µM (active). The GI50 in the test with RPMI-8226 was 0.000203 µM (active); in the test with RXF 393 it was 0.000174 µM (active); with SK-MEL-2 it was 0.000423 µM (active); in the test on SW-620 it was 0.000249 µM (active); in the test on UACC-257, 0.00139 µM (active).

On to `COC(=O)c1c(O)ccc2c1c1c(n2Cc2ccccc2Cl)C(=O)c2ccccc2C1=O`, for which the GI50 in the test with 786-0 is 16.6 µM (inactive); in the test on ACHN it was 16.5 µM (inactive); with HCT-116, 10.5 µM (inactive); with HT-29, 1.17 µM (inactive); in the test on Hs-578T, 21.6 µM (inactive); with IGROV-1, 13.6 µM (inactive). The GI50 with KM12 was 10.1 µM (inactive); with MDA-N, 12.8 µM (inactive); in the test with Malme-3M, 17 µM (inactive); in the test on NCI-H226 it was 17.7 µM (inactive); with NCI-H23, 13.2 µM (inactive); in the test with OVCAR-4, 2.93 µM (inactive). Moreover, the GI50 in the test with OVCAR-5 was 19.5 µM (inactive); with RPMI-8226 it was 5.98 µM (inactive); in the test on RXF 393 it was 16.3 µM (inactive); in the test with SF-295 it was 14.6 µM (inactive); in the test on SK-MEL-2, 17.4 µM (inactive); with UACC-257, 17.9 µM (inactive).

As for `C[C@]12CC(c3ccccc3O1)C(C(N)=O)C(=O)N2` (some centres not stated), the GI50 with 786-0, in the test on ACHN, in the test on HCT-116, in the test on HT-29, with Hs-578T and in the test with IGROV-1 was > 100 µM (inactive) each time. Besides, the GI50 with KM12, in the test with MDA-N, in the test with Malme-3M, in the test with NCI-H226, in the test on NCI-H23 and in the test with OVCAR-4 was > 100 µM (inactive) each time. For the same compound, the GI50 in the test on OVCAR-5, with RPMI-8226, in the test with RXF 393, in the test with SK-MEL-2, in the test on SW-620 and in the test with UACC-257 was > 100 µM (inactive) in each case.
